The test system of experiment [1] is HEK293 cell membranes (c-Met system). Put plainly: 125I-Norleual binding assay, HEK293 cell membranes. The arrangement: species or system human. The note with it: 1.5 nM HGF or 1 μM Norleual. As to the method: (§1) FIG. 3C: ^125I-Norleual was bound to HEK membranes in the presence or absence of 1.5 nM HGF (n=8) or 1 μM Norleual (n=6). Total binding is reported as percent control (n=10), (*p<0.001). Error bars indicate±SD. […] Error bars indicate SD and data points were performed in duplicate.
^125I-Norleual binding assay. HEK293 cells were grown to confluency in DMEM fortified with 10% FBS. Media was aspirated and cells were washed twice with ice-cold PBS. Cells were lysed with hypotonic buffer and homogenized as described by Zhang et al. (1999, J. Pharmacol. Exp. Ther. 289: 1075-1083; 2003 J. Cell Biochem. 88: 408-417). 450 μg of membrane protein was incubated with 1.5 nM ^125I-Norleual with or without Norleual or HGF in a total volume of 250 μl PBS, 0.1% BSA. Tubes were spun and binding was carried out for 60 minutes at RT. Bound and free ligands were separated by vacuum filtration using (Brandel Cell Harvester, Schleicher & Schull, Keene, N.H., USA) 32 glass filters. Radioactivity retained by the filters was measured using a gamma counter. […] Data analysis was preformed using Prism software (GraphicPad) per the supplier's recommendations.
Materials and methods were as described in Example 1. In separate tests of unlabeled competitors, both Norleual and HGF competed with ^125I-HGF for high affinity binding to mouse liver plasma membranes (FIGS. 2A, 2B). […]

The next experiment deals with c-Met receptor. Put plainly: Cross-linking of 125I-COMPOUND 2 or 125I-HGF to HEK293 cell membranes with unlabeled competitor. The note with it: cross-linked, 1 nM competitor. In kind it is binding, human. As to the method:
as §1
Briefly, COMPOUND 2 was iodinated with […] and bound and cross-linked to HEK cell membranes with or without 1 nM COMPOUND 2 or 1 nM hepatocyte growth factor. Following solubilization and separation of free label by molecular sieving, total radioactive counts were determined. The ability of the ligand COMPOUND 2 to compete with hepatocyte growth factor binding to the c-Met receptor was also tested using mouse liver plasma membranes and intact HEK293 cells. Briefly, mouse liver was homogenized and incubated with ^125I-HGF with various concentrations of HGF or COMPOUND 2. Membranes were pelleted and unbound label was removed by washing, and total radioactive counts were determined. Next, HEK293 cell membranes were cross-linked with ^125I-HGF with unlabeled HGF or COMPOUND 2.

In the next experiment the target is c-Met (Homo sapiens, UniProt P08581). Put plainly: Immunoprecipitation/Western blot of HGF-dependent c-Met and Gab1 phosphorylation and association in HEK293 cells. In kind it is cell-based. Details: host or cells: HEK293. The note with it: HEK293 cells, 10 minutes. The method, then:
(FIG. 5A) HEK293 cells were treated for 10 minutes with HGF at indicated concentrations. Lysates were immunoprecipitated (IP) with anti-c-Met antibody (DO-24) and immunoblotted (IB) with anti-c-Met or anti-phospho-tyrosine (06-427) antibody. (FIG. 5B) HEK293 cells were treated for 10 minutes with HGF and/or Norleual. Lysates were IP with anti-c-Met (DO-24) and IB with anti-c-Met (DQ-13) or anti-phospho-tyrosine (HAM 1676). (FIG. 5C) HEK293 lysates were IP with anti-c-Met (DO-24) and IB with anti-Gab1. (FIG. 5D) HEK 293 lysates were IP with anti-Gab1 and IB with anti-Gab1 or anti-phospho-tyrosine (HAM 1676). (FIGS. 5E, 5F, 5G) Relative amounts (normalized to % total c-Met in IP) of quantified IP/IB band intensities for control, 110 pM HGF-, 110 pM HGF and 20 pM Norleual-, and 20 pM Norleual-treated HEK293 cells for phospho-c-Met (FIG. 5E, n=4), phospho-Gab1 (FIG. 5F, n=4), and c-Met associated Gab1 (FIG. 5G, n=3). Error bars indicate ±SD.
HEK293 cells were treated for 10 minutes with HGF and/or Norleual at the indicated concentrations. Lysates were IP with anti-c-Met (DO-24, Millipore/Upstate, Billerica, Mass.) and IB with anti-c-Met (DQ-13, Millipore/Upstate) or anti-phosphotyrosine (HAM1676, lot JLB03, R&D Systems, Inc., Minneapolis, Minn.).
Immunoprecipitation and Western blotting. Cells were serum starved for two hours in DMEM before treatment. Cells were harvested using RIPA lysis buffer (Upstate Biotechnol. Inc., Lake Placid, N.Y.) with phosphatase inhibitor cocktails 1 and 2 (Sigma, St Louis, Mo., USA). Protein concentration was determined using the BCA assay (Pierce, Rockford, Ill., USA). Lysates were incubated with antibody overnight at 4° C. Immunoprecipitation controls received mouse non-specific Ig (Upstate). Proteins were captured with protein-A agarose (Upstate) and were washed with PBS. Proteins were resolved using SDS-PAGE electrophoresis (Criterion, BioRad, Hercules, Calif., USA), transferred to nitrocellulose, and incubated with appropriate antibodies. Proteins were visualized using the Supersignal West Pico Chemiluminescent Substrate system (Pierce). The film images were digitized and analyzed using TotalLab® software (AmershamPharmacia/GE HealthCare, Piscataway, N.J.).
Whether the interaction of Norleual with the c-Met receptor had functional consequences regarding c-Met signaling was next investigated by determining whether Norleual could alter the phosphorylation status of cellular protein tyrosine phosphate (FIG. 4) and more specifically, of c-Met (i.e., c-Met activation), and also whether Norleual could modulate Gab1 association with c-Met. Human embryonic kidney HEK293 cells were activated by HGF in the presence or absence of Norleual. Solubilized membranes were immunoprecipitated (IP) with an anti-c-Met antibody and immunoblotted (IB) for total c-Met, anti-phospho-tyrosine to detect the activated form of c-Met, and anti-Gab1 to detect c-Met/Gab1 association. […] To confirm these findings, treated HEK293 lysates were precipitated with anti-Gab1 and blotted for total Gab1 and phospho-Gab1, its activated form. Again, Norleual inhibited HGF-induced Gab1 phosphorylation (FIGS. 5D, […]).

For the next experiment, the system named is neovascularization. The experiment in a line: Disc angiogenesis assay (subcutaneous sponge disc). Conditions: 50 μg per disc core, 14 days, rat. The format is in vivo, Sprague Dawley rats. The method, then: FIG. 19 depicts effects on angiogenesis of angiotensin-like factors in a rat in vivo disc angiogenesis assay. Vascularization was quantified by digital image analysis of fixed and stained discs recovered from animals 14 days after subcutaneous implantation of sponge discs containing the indicated compounds.
Disc Angiogenesis Assay. […] A 2 mm core was removed from the center of each disc, saturated with 50 μg of Nle^1-AngIV (SEQ ID NO:41), Nle^1-Leu^3-Ψ(CH2NH2)^3-4-AngIV, Hexamide, or ethanol (control), air dried, then sealed using a fixative (Elvax, DuPont) to allow sustained delivery of the drug treatment into the disc and adjacent tissues. The cores were dried for 30 min, then reinserted into the sponge discs. Impermeable top and bottom covers were prepared by coating 10 mm diameter paper discs with a plexiglass coating, then glued to the top and bottom of the sponge discs, leaving only the rim of the disc available for centripetal cellular penetration. Just prior to implantation, the discs were soaked briefly in sterile saline.
Thirty-two Sprague Dawley female rats (225-275 gr) were used to evaluate four compounds for angiogenic or anti-angiogenic properties using the disc angiogenesis assay. Animals were anesthetized using sodium pentobarbital (40 mg/kg IP). The dorsum was then shaved and aseptically prepped. Each animal received four discs. Animals receiving treated discs were implanted with 2 treated discs and 2 ethanol-soaked control discs. Thus, in a group of 4 animals there were 8 treatment discs, and 8 control discs. These control discs were used to determine whether the ligand had potential systemic effects. Another group of 4 animals received only ethanol-soaked control discs (spontaneous growth controls or SGC discs) for an n=16. However, one SGC was fragmented during processing leaving an n=15.
Four 2 cm cutaneous incisions were made along the dorsum (left thoracic, right thoracolumbar, left thoracolumbar, and right lumbar), and subcutaneous pouches opened in the fascia using blunt dissection. Discs were moistened in sterile saline, inserted deep to the pouch, and the skin closed with sterile surgical staples. Animals were recovered under heat lamps until sternally recumbent, then individually housed for 14 days in an AAALAC accredited facility (water and food ad libitum; 12/12 hour light cycle).
After 14 days the animals were euthanized in a CO2 chamber and the discs were removed. […] Cellular penetration into the discs was quantified using a digital imaging system (Imaging Research Inc., St. Catharines, Ontario, Canada). The total area of the disc was calculated, as was the area containing stained cells. […]
Results. Following staining with toludine blue or Factor VIII, neovascularization was quantitated by densitometry.

The next experiment concerns human endothelial cells. Put plainly: Proliferation and migration of human endothelial cells. The format is cell-based.

Non-standard residues stand in square brackets, D forms with d. No end group written: not given here. Nle = CCCC[C@H](N)C(=O)O

These results are taken from patent publication US8236761B2, “C-Met receptor regulation by angiotensin IV (AT4) receptor ligands” (Washington State University Research Foundation, priority 2006, dated 2012).

Sequence of c-Met (P08581 308-1390 limits assumed): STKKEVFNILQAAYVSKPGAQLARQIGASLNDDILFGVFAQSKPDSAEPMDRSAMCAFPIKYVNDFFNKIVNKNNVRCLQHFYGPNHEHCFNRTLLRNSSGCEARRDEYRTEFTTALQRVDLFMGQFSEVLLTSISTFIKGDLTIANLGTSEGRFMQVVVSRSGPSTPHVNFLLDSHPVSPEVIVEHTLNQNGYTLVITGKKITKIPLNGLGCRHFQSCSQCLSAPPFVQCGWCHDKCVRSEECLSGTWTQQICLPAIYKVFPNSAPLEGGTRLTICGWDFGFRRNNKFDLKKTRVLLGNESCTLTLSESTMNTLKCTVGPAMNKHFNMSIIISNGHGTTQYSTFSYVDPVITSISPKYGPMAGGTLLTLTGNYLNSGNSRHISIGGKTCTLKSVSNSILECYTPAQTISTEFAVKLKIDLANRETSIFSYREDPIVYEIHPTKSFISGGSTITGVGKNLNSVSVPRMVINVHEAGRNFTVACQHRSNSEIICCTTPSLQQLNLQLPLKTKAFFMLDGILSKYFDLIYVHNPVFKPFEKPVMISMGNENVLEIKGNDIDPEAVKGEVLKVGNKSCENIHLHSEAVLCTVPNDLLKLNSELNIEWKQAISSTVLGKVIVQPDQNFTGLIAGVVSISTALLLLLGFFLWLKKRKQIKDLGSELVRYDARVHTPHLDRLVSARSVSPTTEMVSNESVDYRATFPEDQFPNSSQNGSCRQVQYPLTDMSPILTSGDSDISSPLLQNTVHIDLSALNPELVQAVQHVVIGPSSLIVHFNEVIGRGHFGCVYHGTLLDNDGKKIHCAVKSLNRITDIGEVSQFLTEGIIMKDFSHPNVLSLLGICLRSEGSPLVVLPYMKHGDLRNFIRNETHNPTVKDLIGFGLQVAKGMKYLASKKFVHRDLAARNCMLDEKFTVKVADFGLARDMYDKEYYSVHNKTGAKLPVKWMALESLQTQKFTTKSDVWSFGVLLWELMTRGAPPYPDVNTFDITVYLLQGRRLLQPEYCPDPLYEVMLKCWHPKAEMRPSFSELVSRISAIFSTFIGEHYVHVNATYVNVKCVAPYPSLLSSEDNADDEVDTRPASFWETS
Sequence of c-Met (P08581 25-307 limits assumed): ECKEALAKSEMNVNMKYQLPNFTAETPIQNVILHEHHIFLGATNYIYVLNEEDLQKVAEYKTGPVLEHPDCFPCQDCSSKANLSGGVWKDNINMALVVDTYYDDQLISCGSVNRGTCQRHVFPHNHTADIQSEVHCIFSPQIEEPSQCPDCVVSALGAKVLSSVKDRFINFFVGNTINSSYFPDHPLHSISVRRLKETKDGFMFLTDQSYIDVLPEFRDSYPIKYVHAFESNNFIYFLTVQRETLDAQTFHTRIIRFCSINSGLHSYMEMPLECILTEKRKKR

Turning to “HGF: Hepatocyte growth factor (SEQ ID NO:83), purchased from R&D systems; native ligand of the c-Met receptor”, the “Competition for 125I-Norleual specific binding to HEK293 cell membranes” value in experiment [1] was “competed”. Further, in the experiment with c-Met receptor, the “Effect on 125I-COMPOUND 2 binding to HEK cells” value is reported as “blocked”. In addition, in the experiment with c-Met, the “Concentration at which c-Met auto-phosphorylation saturates” value turned out to be 550 pM.

In the case of “Nle-Tyr-Ile-6(amino) hexanoic acid amide [Compound 4]”, the “Effect on angiogenesis in disc assay versus SGC discs” value in the experiment with neovascularization is “antagonist activity”.

Nle-Tyr-Ile-His ([Nle]YIH) [Compound 3]: in the experiment on neovascularization, the “Effect on angiogenesis in disc assay versus SGC discs” value is given as “antagonist activity”.

In the case of “Nle-Tyr-Ile-His-Pro-Phe ([Nle]YIHPF) [Compound 1]”, the “Proliferation and migration of human endothelial cells” value in the experiment on human endothelial cells is on record as “augmented”. For the same substance, the “Effect on angiogenesis in disc assay versus SGC discs” value in the experiment on neovascularization was “lone AT4 receptor agonist”.
